Results as given in patent publication US4015974A, “Amido phosphorothiolates” (priority 1972, dated 1977).

Legend:
Assay type in all cases: in vivo
[1] = system: barnyard grass (Echinochloa crus-galli); experiment: Water application, herbicidal effect on barnyard grass (Table 2); design: key: 0: not damaged; 5: completely killed; details: 25 days, score 0-5
How it was run: (§1)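 Scores (0–5) taken 25 days post-treatment. Wettable-powder formulations were applied into standing water over paddy soil holding 3-leaf-stage transplanted rice, sown Echinochloa and naturally emerging monochoria, false pimpernel and toothcup.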

rice = experiment: Water application, phytotoxicity on rice (Table 2); design: key: 0: no effect; 1: very slightly affected; 2: slightly affected; 3: moderately affected; 4: considerably affected; 5: completely killed; details: 25 days, score 0-5
How it was run: as §1

[2] = system: broad-leaved weeds, e.g., monochoria, false pimpernel and toothcup; experiment: Water application, herbicidal effect on broad-leaved weeds (Table 2); design: key: 0: not damaged; 5: completely killed; details: 25 days, score 0-5
How it was run: as §1

radish = experiment: Pre-emergence application, herbicidal effect on radish (Table 1); design: key: 0: not damaged; 5: completely killed; details: 20 days after application, score 0-5
How it was run: (§2)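 Scores run from 0 (undamaged) to 5 (fully killed), read 20 days post-treatment. Compounds were applied as water-diluted wettable powders to soil over freshly covered seeds in ~10 cm pots, with plants kept in a greenhouse.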

[3] = system: barnyard grass (Echinochloa crus-galli); experiment: Pre-emergence application, herbicidal effect on barnyard grass (Table 1); design: key: 0: not damaged; 5: completely killed; details: 20 days after application, score 0-5
How it was run: as §2

[4] = system: common purslane (Portulaca oleracea); experiment: Pre-emergence application, herbicidal effect on common purslane (Table 1); design: key: 0: not damaged; 5: completely killed; details: 20 days after application, score 0-5
How it was run: as §2

[5] = system: common lambsquarter (Chenopodium album); experiment: Pre-emergence application, herbicidal effect on common lambsquarter (Table 1); design: key: 0: not damaged; 5: completely killed; details: 20 days after application, score 0-5
How it was run: as §2

[6] = system: large crabgrass (Digitaria sanguinalis); experiment: Pre-emergence application, herbicidal effect on large crabgrass (Table 1); design: key: 0: not damaged; 5: completely killed; details: 20 days after application, score 0-5
How it was run: as §2

[7] = system: redroot pigweed (Amaranthus retroflexus); experiment: Pre-emergence application, herbicidal effect on redroot pigweed (Table 1); design: key: 0: not damaged; 5: completely killed; details: 20 days after application, score 0-5
How it was run: as §2

CCCOP(=O)(SCCC)SCC(=O)N1CCCCC1C (stereo not drawn) [Compound 16, O,S-di-n-propyl-S-(2-methylpiperidinocarbamoylmethyl)phosphorodithiolate]
Herbicidal effects, barnyard grass ([1]; 10 g/a): 5 | Herbicidal effects, barnyard grass ([1]; 20 g/a): 5 | Herbicidal effects, barnyard grass ([1]; 40 g/a): 5 | Phytotoxicity on rice (rice; 10 g/a): 0 | Phytotoxicity on rice (rice; 20 g/a): 0 | Phytotoxicity on rice (rice; 40 g/a): 0 | Herbicidal effects, broad-leaved weeds ([2]; 10 g/a): 5 | Herbicidal effects, broad-leaved weeds ([2]; 20 g/a): 5 | Herbicidal effects, broad-leaved weeds ([2]; 40 g/a): 5 | Herbicidal effect, radish (radish; 10 g./a.): 0 | Herbicidal effect, radish (radish; 20 g./a.): 0 | Herbicidal effect, radish (radish; 40 g./a.): 0 | Herbicidal effect, barnyard grass ([3]; 10 g./a.): 4 | Herbicidal effect, barnyard grass ([3]; 20 g./a.): 4 | Herbicidal effect, barnyard grass ([3]; 40 g./a.): 5 | Herbicidal effect, common purslane ([4]; 10 g./a.): 4 | Herbicidal effect, common purslane ([4]; 20 g./a.): 4 | Herbicidal effect, common purslane ([4]; 40 g./a.): 4 | Herbicidal effect, common lambsquarter ([5]; 10 g./a.): 4 | Herbicidal effect, common lambsquarter ([5]; 20 g./a.): 4 | Herbicidal effect, common lambsquarter ([5]; 40 g./a.): 5 | Herbicidal effect, large crabgrass ([6]; 10 g./a.): 5 | Herbicidal effect, large crabgrass ([6]; 20 g./a.): 5 | Herbicidal effect, large crabgrass ([6]; 40 g./a.): 5 | Herbicidal effect, redroot pigweed ([7]; 10 g./a.): 4 | Herbicidal effect, redroot pigweed ([7]; 20 g./a.): 4 | Herbicidal effect, redroot pigweed ([7]; 40 g./a.): 4

CCCCOP(=O)(SCC)SCC(=O)N1CCCCC1C (stereo not drawn) [Compound 15]
Herbicidal effects, barnyard grass ([1]; 10 g/a): 5 | Herbicidal effects, barnyard grass ([1]; 20 g/a): 5 | Herbicidal effects, barnyard grass ([1]; 40 g/a): 5 | Phytotoxicity on rice (rice; 10 g/a): 0 | Phytotoxicity on rice (rice; 20 g/a): 0 | Phytotoxicity on rice (rice; 40 g/a): 0 | Herbicidal effects, broad-leaved weeds ([2]; 10 g/a): 5 | Herbicidal effects, broad-leaved weeds ([2]; 20 g/a): 5 | Herbicidal effects, broad-leaved weeds ([2]; 40 g/a): 5 | Herbicidal effect, radish (radish; 10 g./a.): 0 | Herbicidal effect, radish (radish; 20 g./a.): 0 | Herbicidal effect, radish (radish; 40 g./a.): 0 | Herbicidal effect, barnyard grass ([3]; 10 g./a.): 5 | Herbicidal effect, barnyard grass ([3]; 20 g./a.): 5 | Herbicidal effect, barnyard grass ([3]; 40 g./a.): 5 | Herbicidal effect, common purslane ([4]; 10 g./a.): 5 | Herbicidal effect, common purslane ([4]; 20 g./a.): 5 | Herbicidal effect, common purslane ([4]; 40 g./a.): 5 | Herbicidal effect, common lambsquarter ([5]; 10 g./a.): 4 | Herbicidal effect, common lambsquarter ([5]; 20 g./a.): 5 | Herbicidal effect, common lambsquarter ([5]; 40 g./a.): 5 | Herbicidal effect, large crabgrass ([6]; 10 g./a.): 5 | Herbicidal effect, large crabgrass ([6]; 20 g./a.): 5 | Herbicidal effect, large crabgrass ([6]; 40 g./a.): 5 | Herbicidal effect, redroot pigweed ([7]; 10 g./a.): 4 | Herbicidal effect, redroot pigweed ([7]; 20 g./a.): 5 | Herbicidal effect, redroot pigweed ([7]; 40 g./a.): 5

CCOP(=O)(SCC(=O)N1CCCCC1CC)SCC(C)C (stereo not drawn) [Compound 77]
Herbicidal effects, barnyard grass ([1]; 10 g/a): 5 | Herbicidal effects, barnyard grass ([1]; 20 g/a): 5 | Herbicidal effects, barnyard grass ([1]; 40 g/a): 5 | Phytotoxicity on rice (rice; 10 g/a): 0 | Phytotoxicity on rice (rice; 20 g/a): 0 | Phytotoxicity on rice (rice; 40 g/a): 1 | Herbicidal effects, broad-leaved weeds ([2]; 10 g/a): 5 | Herbicidal effects, broad-leaved weeds ([2]; 20 g/a): 5 | Herbicidal effects, broad-leaved weeds ([2]; 40 g/a): 5 | Herbicidal effect, radish (radish; 10 g./a.): 0 | Herbicidal effect, radish (radish; 20 g./a.): 0 | Herbicidal effect, radish (radish; 40 g./a.): 0 | Herbicidal effect, barnyard grass ([3]; 10 g./a.): 5 | Herbicidal effect, barnyard grass ([3]; 20 g./a.): 5 | Herbicidal effect, barnyard grass ([3]; 40 g./a.): 5 | Herbicidal effect, common purslane ([4]; 10 g./a.): 5 | Herbicidal effect, common purslane ([4]; 20 g./a.): 5 | Herbicidal effect, common purslane ([4]; 40 g./a.): 5 | Herbicidal effect, common lambsquarter ([5]; 10 g./a.): 5 | Herbicidal effect, common lambsquarter ([5]; 20 g./a.): 5 | Herbicidal effect, common lambsquarter ([5]; 40 g./a.): 5 | Herbicidal effect, large crabgrass ([6]; 10 g./a.): 5 | Herbicidal effect, large crabgrass ([6]; 20 g./a.): 5 | Herbicidal effect, large crabgrass ([6]; 40 g./a.): 5 | Herbicidal effect, redroot pigweed ([7]; 10 g./a.): 5 | Herbicidal effect, redroot pigweed ([7]; 20 g./a.): 5 | Herbicidal effect, redroot pigweed ([7]; 40 g./a.): 5

CCCCCSP(=O)(OCCC)SCC(=O)N1CCCCC1C (stereo not drawn) [Compound 68]
Herbicidal effects, barnyard grass ([1]; 10 g/a): 5 | Herbicidal effects, barnyard grass ([1]; 20 g/a): 5 | Herbicidal effects, barnyard grass ([1]; 40 g/a): 5 | Phytotoxicity on rice (rice; 10 g/a): 0 | Phytotoxicity on rice (rice; 20 g/a): 0 | Phytotoxicity on rice (rice; 40 g/a): 0 | Herbicidal effects, broad-leaved weeds ([2]; 10 g/a): 5 | Herbicidal effects, broad-leaved weeds ([2]; 20 g/a): 5 | Herbicidal effects, broad-leaved weeds ([2]; 40 g/a): 5 | Herbicidal effect, radish (radish; 10 g./a.): 0 | Herbicidal effect, radish (radish; 20 g./a.): 0 | Herbicidal effect, radish (radish; 40 g./a.): 0 | Herbicidal effect, barnyard grass ([3]; 10 g./a.): 4 | Herbicidal effect, barnyard grass ([3]; 20 g./a.): 4 | Herbicidal effect, barnyard grass ([3]; 40 g./a.): 5 | Herbicidal effect, common purslane ([4]; 10 g./a.): 3 | Herbicidal effect, common purslane ([4]; 20 g./a.): 4 | Herbicidal effect, common purslane ([4]; 40 g./a.): 5 | Herbicidal effect, common lambsquarter ([5]; 10 g./a.): 4 | Herbicidal effect, common lambsquarter ([5]; 20 g./a.): 4 | Herbicidal effect, common lambsquarter ([5]; 40 g./a.): 5 | Herbicidal effect, large crabgrass ([6]; 10 g./a.): 4 | Herbicidal effect, large crabgrass ([6]; 20 g./a.): 4 | Herbicidal effect, large crabgrass ([6]; 40 g./a.): 5 | Herbicidal effect, redroot pigweed ([7]; 10 g./a.): 4 | Herbicidal effect, redroot pigweed ([7]; 20 g./a.): 4 | Herbicidal effect, redroot pigweed ([7]; 40 g./a.): 5

CCOP(=O)(SCCC(C)C)SCC(=O)N1CCCCC1CC (stereo not drawn) [Compound 79]
Herbicidal effects, barnyard grass ([1]; 10 g/a): 5 | Herbicidal effects, barnyard grass ([1]; 20 g/a): 5 | Herbicidal effects, barnyard grass ([1]; 40 g/a): 5 | Phytotoxicity on rice (rice; 10 g/a): 0 | Phytotoxicity on rice (rice; 20 g/a): 0 | Phytotoxicity on rice (rice; 40 g/a): 1 | Herbicidal effects, broad-leaved weeds ([2]; 10 g/a): 5 | Herbicidal effects, broad-leaved weeds ([2]; 20 g/a): 5 | Herbicidal effects, broad-leaved weeds ([2]; 40 g/a): 5 | Herbicidal effect, radish (radish; 10 g./a.): 0 | Herbicidal effect, radish (radish; 20 g./a.): 0 | Herbicidal effect, radish (radish; 40 g./a.): 1 | Herbicidal effect, barnyard grass ([3]; 10 g./a.): 5 | Herbicidal effect, barnyard grass ([3]; 20 g./a.): 5 | Herbicidal effect, barnyard grass ([3]; 40 g./a.): 5 | Herbicidal effect, common purslane ([4]; 10 g./a.): 5 | Herbicidal effect, common purslane ([4]; 20 g./a.): 5 | Herbicidal effect, common purslane ([4]; 40 g./a.): 5 | Herbicidal effect, common lambsquarter ([5]; 10 g./a.): 5 | Herbicidal effect, common lambsquarter ([5]; 20 g./a.): 5 | Herbicidal effect, common lambsquarter ([5]; 40 g./a.): 5 | Herbicidal effect, large crabgrass ([6]; 10 g./a.): 5 | Herbicidal effect, large crabgrass ([6]; 20 g./a.): 5 | Herbicidal effect, large crabgrass ([6]; 40 g./a.): 5 | Herbicidal effect, redroot pigweed ([7]; 10 g./a.): 4 | Herbicidal effect, redroot pigweed ([7]; 20 g./a.): 5 | Herbicidal effect, redroot pigweed ([7]; 40 g./a.): 5

CCOP(=O)(SCC(=O)N1CCC(C)CC1)SC(C)CC (stereo not drawn) [Compound 27]
Herbicidal effects, barnyard grass ([1]; 10 g/a): 5 | Herbicidal effects, barnyard grass ([1]; 20 g/a): 5 | Herbicidal effects, barnyard grass ([1]; 40 g/a): 5 | Phytotoxicity on rice (rice; 10 g/a): 0 | Phytotoxicity on rice (rice; 20 g/a): 0 | Phytotoxicity on rice (rice; 40 g/a): 0 | Herbicidal effects, broad-leaved weeds ([2]; 10 g/a): 5 | Herbicidal effects, broad-leaved weeds ([2]; 20 g/a): 5 | Herbicidal effects, broad-leaved weeds ([2]; 40 g/a): 5 | Herbicidal effect, radish (radish; 10 g./a.): 0 | Herbicidal effect, radish (radish; 20 g./a.): 0 | Herbicidal effect, radish (radish; 40 g./a.): 0 | Herbicidal effect, barnyard grass ([3]; 10 g./a.): 4 | Herbicidal effect, barnyard grass ([3]; 20 g./a.): 5 | Herbicidal effect, barnyard grass ([3]; 40 g./a.): 5 | Herbicidal effect, common purslane ([4]; 10 g./a.): 4 | Herbicidal effect, common purslane ([4]; 20 g./a.): 4 | Herbicidal effect, common purslane ([4]; 40 g./a.): 4 | Herbicidal effect, common lambsquarter ([5]; 10 g./a.): 4 | Herbicidal effect, common lambsquarter ([5]; 20 g./a.): 4 | Herbicidal effect, common lambsquarter ([5]; 40 g./a.): 5 | Herbicidal effect, large crabgrass ([6]; 10 g./a.): 5 | Herbicidal effect, large crabgrass ([6]; 20 g./a.): 5 | Herbicidal effect, large crabgrass ([6]; 40 g./a.): 5 | Herbicidal effect, redroot pigweed ([7]; 10 g./a.): 3 | Herbicidal effect, redroot pigweed ([7]; 20 g./a.): 4 | Herbicidal effect, redroot pigweed ([7]; 40 g./a.): 5
